From US20050137185A1, “Combinations of drugs for the treatment of neoplasms” (priority 2003, published 2005)
Where two headings read alike, the source gives them in different places.

Test system: HCT116 cells
Assay: Anti-proliferation assay (Alamar Blue metabolism)
Format: cell-based
Conditions: Homo sapiens, read-out: Percent inhibition of Alamar Blue Metabolism in HCT116 cells; for inhibition at 5 µM: HCT-116, chlorpromazine 5 μM; for inhibition at 10 µM: HCT-116, chlorpromazine 10 μM; for inhibition at 40 µM: HCT-116, chlorpromazine 40 μM
Procedure: Stock solutions (1000×) of each compound were prepared in DMSO and stored at −20° C. Master stock plates of 2-fold or 4-fold serial dilutions of individual compounds were prepared in 384-well plates. Combination matrices of test compounds were generated from these master stock plates by dilution into growth media described above. […] The combination matrices were used immediately and discarded.
The anti-proliferation assays were performed in 384-well plates. […] Cells were diluted in culture media such that 1500 cells were delivered in 40 μL of media into each assay well. […] 10× stock solutions (4.5 μL) from the combination matrices were added to 40 μL of culture media in assay wells. Assay plates were incubated for 72-80 hours at 37±0.5° C. with 5% CO2. […] Alamar Blue metabolism was quantified by the amount of fluorescence intensity 3.5-5.0 hours after addition. Quantification, using an LJL Analyst AD reader (LJL Biosystems), was taken in the middle of the well with high attenuation, a 100 msec read time, an excitation filter at 530 nm, and an emission filter at 575 nm. For some experiments, quantification was performed using a Wallac Victor^2 reader. Measurements were taken at the top of the well with stabilized energy lamp control; a 100 msec read time, an excitation filter at 530 nm, and an emission filter at 590 nm.

`CN(C)/N=N/c1[nH]cnc1C(N)=O` [Dacarbazine, dacarbazine] showed an inhibition at 14 µM (HCT-116, chlorpromazine 0 μM, dacarbazine 14 μM) of 42.6%, an inhibition at 27 µM (HCT-116, chlorpromazine 0 μM, dacarbazine 27 μM) of 64.6% and an inhibition at 55 µM (HCT-116, chlorpromazine 0 μM, dacarbazine 55 μM) of 74.2%.
Work on `COc1cc2ncnc(Nc3cccc(Cl)c3)c2cc1OC` [Tyrphostin 1486, Tyrphostin AG1478] yielded an inhibition at 13 µM (HCT-116, chlorpromazine 0 μM, tyrphostin 1486 13 μM) of 78.7%, an inhibition at 26 µM (HCT-116, chlorpromazine 0 μM, tyrphostin 1486 26 μM) of 81.4% and an inhibition at 51 µM (HCT-116, chlorpromazine 0 μM, tyrphostin 1486 51 μM) of 81.3%.
With `CCC1=C[C@@H]2CN(C1)Cc1c([nH]c3ccccc13)[C@@](C(=O)OC)(c1cc3c(cc1OC)N(C)[C@H]1[C@@](O)(C(=O)OC)[C@H](OC(C)=O)[C@]4(CC)C=CCN5CC[C@]31[C@@H]54)C2` [Vinorelbine, vinorelbine] the inhibition at 0.004 µM (HCT-116, chlorpromazine 0 μM, vinorelbine 0.004 μM) was -8.91% and the inhibition at 0.008 µM (HCT-116, chlorpromazine 0 μM, vinorelbine 0.008 μM) was 42.1%.
Work on `CN(C)CCCN1c2ccccc2Sc2ccc(Cl)cc21` [Chlorpromazine, chlorpromazine] yielded an inhibition at 7 µM (HCT-116, 72 h, chlorpromazine 7 μM, tyrphostin 1486 0 μM) of -18.6%, an inhibition at 14 µM (HCT-116, 72 h, chlorpromazine 14 μM, tyrphostin 1486 0 μM) of -12.5% and an inhibition at 28 µM (HCT-116, 72 h, chlorpromazine 28 μM, tyrphostin 1486 0 μM) of 62.2%. It also gave an inhibition at 56 µM (HCT-116, 72 h, chlorpromazine 56 μM, tyrphostin 1486 0 μM) of 85.6%, an inhibition at […] (HCT-116, 72 h, chlorpromazine […], tyrphostin 1486 0 μM) of 95.9% and an inhibition at 5 µM (dacarbazine 0 μM) of 17%. For the same compound, the inhibition at 5 µM (docetaxel 0 μM) was 2.8%, the inhibition at 5 µM (floxuridine 0 μM) was 3.53% and the inhibition at 5 µM (hydroxycamptothecin 0 μM) was 24%. It also gave an inhibition at 5 µM (leucovorin 0 μM) of -4.39%, an inhibition at 5 µM (paclitaxel 0 μM) of -11.8% and an inhibition at 5 µM (vinblastine 0 μM) of -20%. The inhibition at 5 µM (vinorelbine 0 μM) was -20%, the inhibition at 10 µM (dacarbazine 0 μM) was 54.6% and the inhibition at 10 µM (docetaxel 0 μM) was 84.8%. It also gave an inhibition at 10 µM (floxuridine 0 μM) of 65.4%, an inhibition at 10 µM (hydroxycamptothecin 0 μM) of 84% and an inhibition at 10 µM (leucovorin 0 μM) of 3.27%. It also gave an inhibition at 10 µM (paclitaxel 0 μM) of 56.2%, an inhibition at 10 µM (vinblastine 0 μM) of 50.8% and an inhibition at 10 µM (vinorelbine 0 μM) of 60%. For the same compound, the inhibition at 20 µM (HCT-116, chlorpromazine 20 μM, docetaxel 0 μM) was 91.9%, the inhibition at 20 µM (HCT-116, chlorpromazine 20 μM, floxuridine 0 μM) was 88.5% and the inhibition at 20 µM (HCT-116, chlorpromazine 20 μM, hydroxycamptothecin 0 μM) was 88.2%. For the same compound, the inhibition at 20 µM (HCT-116, chlorpromazine 20 μM, leucovorin 0 μM) was 80.9%, the inhibition at 20 µM (HCT-116, chlorpromazine 20 μM, paclitaxel 0 μM) was 87% and the inhibition at 20 µM (HCT-116, chlorpromazine 20 μM, vinblastine 0 μM) was 85.8%. The inhibition at 20 µM (HCT-116, chlorpromazine 20 μM, vinorelbine 0 μM) was 88.4%, the inhibition at 40 µM (dacarbazine 0 μM) was 95.8% and the inhibition at 40 µM (docetaxel 0 μM) was 95.7%. The inhibition at 40 µM (floxuridine 0 μM) was 95.7%, the inhibition at 40 µM (hydroxycamptothecin 0 μM) was 95.8% and the inhibition at 40 µM (leucovorin 0 μM) was 95.6%. The inhibition at 40 µM (paclitaxel 0 μM) was 95.7%, the inhibition at 40 µM (vinblastine 0 μM) was 94.5% and the inhibition at 40 µM (vinorelbine 0 μM) was 94.7%. It also gave an inhibition at […] (HCT-116, chlorpromazine […], dacarbazine 0 μM) of 4.03%, an inhibition at […] (HCT-116, chlorpromazine […], docetaxel 0 μM) of -12.2% and an inhibition at […] (HCT-116, chlorpromazine […], floxuridine 0 μM) of -0.0804%. The inhibition at […] (HCT-116, chlorpromazine […], hydroxycamptothecin 0 μM) was -8.14%, the inhibition at […] (HCT-116, chlorpromazine […], leucovorin 0 μM) was -0.0253% and the inhibition at […] (HCT-116, chlorpromazine […], paclitaxel 0 μM) was 10.1%. The inhibition at […] (HCT-116, chlorpromazine […], vinblastine 0 μM) was -20% and the inhibition at […] (HCT-116, chlorpromazine […], vinorelbine 0 μM) was -0.591%.
For `Nc1nc2c(c(=O)[nH]1)N(C=O)C(CNc1ccc(C(=O)N[C@@H](CCC(=O)O)C(=O)O)cc1)CN2` (some centres unmarked) [Leucovorin, leucovorin], the inhibition at 20 µM (HCT-116, chlorpromazine 0 μM, leucovorin 20 μM) was -11.5%.
